# According to US7019019B2, “Matriptase inhibitors and methods of use” (Dendreon Corporation, priority 2002, dated 2006):
# pKi: −log10 of the molar value.
# What was measured:
# Type in all cases: biochemical
# Matriptase = target: T1, Matriptase (Homo sapiens, UniProt Q9Y5Y6); experiment: Amidolytic assay for inhibition of serine protease activity of matriptase or MTSP1
# T1 sequence (Q9Y5Y6 1-855 C731S): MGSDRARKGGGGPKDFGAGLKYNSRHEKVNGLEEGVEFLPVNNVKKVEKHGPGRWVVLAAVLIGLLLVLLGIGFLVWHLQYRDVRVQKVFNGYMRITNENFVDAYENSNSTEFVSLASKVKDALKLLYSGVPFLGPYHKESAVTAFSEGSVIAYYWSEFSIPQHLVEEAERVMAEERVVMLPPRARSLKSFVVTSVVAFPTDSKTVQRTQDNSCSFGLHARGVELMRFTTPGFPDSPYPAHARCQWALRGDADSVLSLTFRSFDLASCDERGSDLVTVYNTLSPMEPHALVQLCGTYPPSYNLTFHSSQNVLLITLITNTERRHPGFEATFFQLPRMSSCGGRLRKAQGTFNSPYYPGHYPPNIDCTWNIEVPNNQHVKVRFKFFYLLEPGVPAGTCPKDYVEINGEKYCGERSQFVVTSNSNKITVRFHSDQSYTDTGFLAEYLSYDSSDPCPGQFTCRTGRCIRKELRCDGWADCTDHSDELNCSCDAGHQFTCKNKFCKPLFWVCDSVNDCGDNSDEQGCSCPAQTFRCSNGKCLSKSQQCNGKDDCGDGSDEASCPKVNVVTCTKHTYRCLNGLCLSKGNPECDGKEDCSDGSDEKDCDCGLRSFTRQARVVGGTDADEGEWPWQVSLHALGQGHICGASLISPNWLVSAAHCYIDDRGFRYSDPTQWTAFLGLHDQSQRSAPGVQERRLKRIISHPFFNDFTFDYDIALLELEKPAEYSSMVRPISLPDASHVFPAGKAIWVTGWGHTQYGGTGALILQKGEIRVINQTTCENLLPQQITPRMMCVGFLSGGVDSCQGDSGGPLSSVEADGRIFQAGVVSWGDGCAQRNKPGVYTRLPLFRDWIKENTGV
# α-thrombin = α-thrombin (Homo sapiens, UniProt P00734); experiment: Thrombin (fIIa) chromogenic assay (Pefachrome t-PA)
# Protocol: (§1) The ability of compounds to act as a selective inhibitor of matriptase activity was assessed by determining the concentration of test-compound which inhibited the activity of matriptase by 50%, (IC50) as described in Example A, and comparing IC50 value for matriptase to that determined for all or some of the following serine proteases: thrombin, recombinant tissue plasminogen activator (rt-PA), plasmin, activated protein C, chymotrypsin, factor Xa and trypsin.
# (§2) The buffer used for all assays was HBSA (10 mM HEPES, pH 7.5, 150 mM sodium chloride, 0.1% bovine serum albumin).
# (§3) The assay for IC50 determinations was conducted by combining in appropriate wells of a Corning microtiter plate, 50 microliters of HBSA, 50 microliters of the test compound at a specified concentration (covering a broad concentration range) diluted in HBSA (or HBSA alone for V0 (uninhibited velocity) measurement), and 50 microliters of the enzyme diluted in HBSA. Following a 30 minute incubation at ambient temperature, 50 microliters of the substrate at the concentrations specified below were added to the wells, yielding a final total volume of 200 microliters. The initial velocity of chromogenic substrate hydrolysis was measured by the change in absorbance at 405 nm using a Thermo Max® Kinetic Microplate Reader over a 5 minute period in which less than 5% of the added substrate was utilized. The concentration of added inhibitor which caused a 50% decrease in the initial rate of hydrolysis was defined as the IC50 value.
# Enzyme activity was determined using the chromogenic substrate, Pefachrome t-PA (CH3SO2-D-hexahydrotyrosine-glycyl-L-Arginine-p-nitroaniline, obtained from Pentapharm Ltd.). The substrate was reconstituted in deionized water prior to use.
# The initial velocity of Pefachrome t-PA hydrolysis was measured by the change in absorbance at 405 nm using a Thermo Max® Kinetic Microplate Reader over a 5 minute period in which less than 5% of the added substrate was utilized. The concentration of added inhibitor which caused a 50% decrease in the initial rate of hydrolysis was defined as the IC50 value.
# Factor Xa = target: T2, Factor Xa (Homo sapiens, UniProt P00742); experiment: Factor Xa chromogenic assay (S-2765); conditions: read-out: Ki FXa
# T2 construct: purchased Enzyme Research Laboratories, Inc. (South Bend, Ind.)
# T2 sequence (P00742 235-488 limits assumed): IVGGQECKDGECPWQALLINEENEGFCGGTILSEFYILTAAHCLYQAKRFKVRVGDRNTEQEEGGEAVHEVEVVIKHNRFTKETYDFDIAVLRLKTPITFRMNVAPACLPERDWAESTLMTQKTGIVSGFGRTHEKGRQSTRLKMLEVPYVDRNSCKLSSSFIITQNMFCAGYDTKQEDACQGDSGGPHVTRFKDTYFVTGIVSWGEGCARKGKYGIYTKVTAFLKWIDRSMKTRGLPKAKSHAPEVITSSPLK
# T2 sequence (P00742 41-179 partner limits assumed): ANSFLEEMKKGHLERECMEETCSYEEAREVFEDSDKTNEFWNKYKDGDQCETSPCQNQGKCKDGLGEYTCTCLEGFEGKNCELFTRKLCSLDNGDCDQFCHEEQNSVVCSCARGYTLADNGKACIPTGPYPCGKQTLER
# Protocol: as §1, §2
# as §3, with “The concentration of added inhibitor which caused a 50% decrease in the initial rate of hydrolysis was defined as the IC50 value.” left out
# Factor Xa catalytic activity was determined using the chromogenic substrate S-2765 (N-benzyloxycarbonyl-D-arginine-L-glycine-L-arginine-p-nitro aniline), obtained from DiaPharma Group (Franklin, Ohio). All substrates were reconstituted in deionized water prior to use. […] Purified human Factor X was obtained from Enzyme Research Laboratories, Inc. (South Bend, Ind.) and Factor Xa (FXa) was activated and prepared from it as described [Bock, P. E., Craig, P. A., Olson, S. T., and Singh, P. Arch. Biochem. Biophys. 273:375-388 (1989)]. The enzyme was diluted into HBSA prior to assay in which the final concentration was 0.25 nM.
# plasmin = plasmin (Homo sapiens, UniProt P00747); experiment: Plasmin chromogenic assay (S-2366)
# Chain of plasmin (P00747 581-810 limits assumed): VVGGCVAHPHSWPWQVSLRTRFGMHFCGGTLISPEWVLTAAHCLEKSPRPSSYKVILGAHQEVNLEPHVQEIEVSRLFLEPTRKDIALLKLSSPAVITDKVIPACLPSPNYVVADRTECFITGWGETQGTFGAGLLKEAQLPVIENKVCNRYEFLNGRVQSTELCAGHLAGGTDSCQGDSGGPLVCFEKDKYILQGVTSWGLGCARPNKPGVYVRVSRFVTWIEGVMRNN
# Chain of plasmin (P00747 97-580 partner limits assumed): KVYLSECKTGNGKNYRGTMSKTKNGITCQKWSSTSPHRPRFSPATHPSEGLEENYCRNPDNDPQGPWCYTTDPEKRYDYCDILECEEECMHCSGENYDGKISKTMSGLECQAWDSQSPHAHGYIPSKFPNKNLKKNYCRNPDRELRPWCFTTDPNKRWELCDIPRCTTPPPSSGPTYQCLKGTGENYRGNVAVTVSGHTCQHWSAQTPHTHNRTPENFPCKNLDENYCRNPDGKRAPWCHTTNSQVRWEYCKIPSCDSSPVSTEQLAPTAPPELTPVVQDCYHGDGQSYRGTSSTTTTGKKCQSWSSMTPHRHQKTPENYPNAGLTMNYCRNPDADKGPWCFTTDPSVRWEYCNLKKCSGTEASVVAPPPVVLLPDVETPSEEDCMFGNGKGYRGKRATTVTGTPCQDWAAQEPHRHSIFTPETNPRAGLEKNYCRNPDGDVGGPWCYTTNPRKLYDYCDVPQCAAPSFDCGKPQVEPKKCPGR
# Protocol: as §1, §2, §3
# Plasmin catalytic activity was determined using the chromogenic substrate, S-2366 [L-pyroglutamyl-L-prolyl-L-arginine-p-nitroaniline hydrochloride], which was obtained from DiaPharma group. The substrate was made up in deionized water followed by dilution in HBSA prior to the assay in which the final concentration was 300 micromolar (about 2.5-times Km). Purified human plasmin was obtained from Enzyme Research Laboratories, Inc. The enzyme was diluted into HBSA prior to assay in which the final concentration was 1.0 nM.
# [1] = target: T3, (Homo sapiens, UniProt Q9UL52); experiment: In vitro enzyme assay for specificity: Endothelin 1
# T3 sequence (Q9UL52 192-423): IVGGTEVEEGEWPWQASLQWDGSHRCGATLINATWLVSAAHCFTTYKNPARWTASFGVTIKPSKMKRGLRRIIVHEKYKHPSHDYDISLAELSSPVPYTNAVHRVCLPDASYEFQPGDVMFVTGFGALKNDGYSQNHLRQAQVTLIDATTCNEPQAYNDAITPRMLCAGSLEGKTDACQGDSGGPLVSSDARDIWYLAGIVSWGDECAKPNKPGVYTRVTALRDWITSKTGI
# [2] = target: T4, (Homo sapiens, UniProt Q9BYE2); experiment: In vitro enzyme assay for specificity: Endothelin 2
# T4 sequence (Q9BYE2 326-586): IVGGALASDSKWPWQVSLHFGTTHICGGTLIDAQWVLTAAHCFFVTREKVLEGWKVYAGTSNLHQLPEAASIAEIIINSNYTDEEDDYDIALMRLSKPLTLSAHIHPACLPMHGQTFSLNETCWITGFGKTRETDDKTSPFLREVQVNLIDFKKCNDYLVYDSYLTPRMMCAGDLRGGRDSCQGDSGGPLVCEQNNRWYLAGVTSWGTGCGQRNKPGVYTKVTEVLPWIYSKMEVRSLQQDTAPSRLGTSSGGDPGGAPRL
Compound,pKi (Matriptase),pKi (α-thrombin),pKi (Factor Xa),pKi (plasmin),pKi [1],pKi [2]
alpha-(3-amidinoBn)MeSO2-G-(2-Amdn)thiophene-5-MeAm,> 7.00,–,5.60 to 6.30,< 5.60,< 5.60,–
3(3-Amdn)Bn-3(Methsulfone)hydantoin-G-(2-Amdn)thiazole-2-MeAm,6.60 to 7.00,< 5.60,< 5.60,–,< 5.60,< 5.60
COC(=O)NC(CCS(C)(=O)=O)(Cc1ccnc(N)c1)C(=O)NCC(=O)NCc1ccc(C(=N)N)s1 (stereo not drawn) [N-MeOCO-(α-(3-Am)4-pyrMe)M(O2)-G-(2-Amdn)thiophene-5-MeAm],6.60 to 7.00,< 5.60,6.30 to 6.60,–,–,–
COC(=O)NC(CCC(=O)OC(C)(C)C)(Cc1cccc(C(=N)N)c1)C(=O)NCC(=O)NCc1ccc(C(=N)N)cc1 (stereo not drawn) [MeOCO-E(O-t-Butyl)(alpha-(3-Amdn)Bn)-G-(4-Amdn)BnAm],6.60 to 7.00,6.30 to 6.60,< 5.60,–,–,–
COC(=O)CC[C@](Cc1cccc(C(=N)N)c1)(NC(=O)OC)C(=O)NCC(=O)NCc1nc(C(=N)N)cs1 [MeOCO-(Me)E(α-(3-Amdn)Bn)-G-(4-Amdn)thiazole-2-MeAm],6.30 to 6.60,< 5.60,< 5.60,–,–,–
N=C(N)c1cccc(C[C@@]2(C(=O)NCC(=O)NCc3ccc(C(=N)N)s3)CCC(=O)N2)c1 [α-(3-Amdn)BnPyro-G-(2-Amdn)thiophene-5-MeAm],> 7.00,5.60 to 6.30,< 5.60,5.60 to 6.30,–,–

# Now from value to compound, other results behind:
pKi (Matriptase),pKi (α-thrombin),pKi (Factor Xa),pKi (plasmin),Compound,pKi [1],pKi [2]
6.60 to 7.00,–,–,–,COC(=O)CCC(N)(Cc1cccc(C(=N)N)c1)C(=O)NCC(=O)NCc1ccc(C(=N)N)s1 (stereo not drawn) [(Me)E(alpha-(3-Amdn)Bn)-G-(2-Amdn)thiophene-5MeAm],–,–
> 7.00,< 5.60,5.60 to 6.30,< 5.60,COC(=O)N[C@](CCC(=O)OC(C)(C)C)(Cc1cccc(C(=N)N)c1)C(=O)NCC(=O)NCc1ccc(C(=N)N)s1 [MeOCO(t-Bu)E(R)(alpha-(3-Amdn)Bn)-G-(2-Amdn)thiophene-5-MeAm],–,–
6.60 to 7.00,5.60 to 6.30,5.60 to 6.30,5.60 to 6.30,N=C(N)c1cccc(CC(N)(CCC(=O)O)C(=O)NCC(=O)NCc2ccc(C(=N)N)s2)c1 (stereo not drawn) [E(alpha-(3-Amdn)Bn)-G-(2-Amdn)thiophene-5MeAm],–,–
6.30 to 6.60,6.30 to 6.60,–,–,iBoc-(Me)E(R)(alpha-(3-Amdn)Bn)-G-(2-Amdn)thiophene-5MeAm,–,–
